In the series the test system is lithium-pilocarpine treated rats. Nature of the series: Morris water maze using pilocarpine-induced status epilepticus (SE). The series is classed as in vivo. The source says: To assess spatial memory and learning in lithium-pilocarpine treated animals and to identify novel compounds that might ameliorate cognitive deficits and neuronal loss associated with pilocarpine-induced status epilepticus (SE). Morris water maze has been used extensively in the study of learning and memory. This test uses a round pool of water in which an escape platform is submerged beneath the surface. The task is to find the hidden platform using only extra maze visual cues (Morris, 1984). Learning can be assessed by quantifying the time that an animal takes to find the platform (latency) over a number of independent trials. […]
Twenty four hours prior to pilocarpine administration, rats were weighed and given lithium chloride (127 mg/kg; i.p.). On the next day, they received pilocarpine hydrochloride (50 mg/kg; i.p.) and were monitored carefully for behavioral seizures. […] All animals were observed and scored for seizure severity for an additional 1.5 hr. […] In our spatial learning protocol rats, received 4 training trials per day wherein the outcome measure evaluated was their ability to find the hidden platform. […] On each of the trials, rats were placed in the water facing the wall at one of the 4 randomly determined starting locations (north, west, east or south) and allowed 120 sec to find the platform. […]

With `C[C@H](OC(N)=O)[C@@H](O)c1ccccc1Cl` [Compound 1, 1-(2-chlorophenyl)-(S)-1-hydroxypropyl-(S)-2-carbamate], the “average time to find the escape platform (latency)” value (65 mg/kg i.p. 15 minutes after the first stage 3 seizure, vs pilocarpine alone group, FIG. 3) was “significant difference in the Pilo+Compound 1 group as compared to the pilocarpine alone group”. Further, for the setting “125 mg/kg administered 30 min after the first convulsive seizure”, the mortality entry is listed as “death of all animals”.

Values taken from patent US9566261B2 (priority 2013, dated 2017).
